The record followed here is PubChem BioAssay AID1082 (University of Pittsburgh Molecular Library Screening Center, 2008).

In the assay the target is Serine/threonine-protein kinase PLK1 (Homo sapiens) (UniProt P53350). The assay can be described thus: PLK1 polo box domain binding inhibitors, SAR follow-up, biochemical, fluorescence polarization, synthesized analogs, IC50 (AID 1082). The settings on record: PLK1 PBD phosphopeptide binding. In general terms: In fluorescence polarisation assays a small probe gives low polarisation when free and higher when bound to something large.
Sequence of Serine/threonine-protein kinase PLK1 (Homo sapiens) (P53350 whole entry, looked up, the tested form may be a part): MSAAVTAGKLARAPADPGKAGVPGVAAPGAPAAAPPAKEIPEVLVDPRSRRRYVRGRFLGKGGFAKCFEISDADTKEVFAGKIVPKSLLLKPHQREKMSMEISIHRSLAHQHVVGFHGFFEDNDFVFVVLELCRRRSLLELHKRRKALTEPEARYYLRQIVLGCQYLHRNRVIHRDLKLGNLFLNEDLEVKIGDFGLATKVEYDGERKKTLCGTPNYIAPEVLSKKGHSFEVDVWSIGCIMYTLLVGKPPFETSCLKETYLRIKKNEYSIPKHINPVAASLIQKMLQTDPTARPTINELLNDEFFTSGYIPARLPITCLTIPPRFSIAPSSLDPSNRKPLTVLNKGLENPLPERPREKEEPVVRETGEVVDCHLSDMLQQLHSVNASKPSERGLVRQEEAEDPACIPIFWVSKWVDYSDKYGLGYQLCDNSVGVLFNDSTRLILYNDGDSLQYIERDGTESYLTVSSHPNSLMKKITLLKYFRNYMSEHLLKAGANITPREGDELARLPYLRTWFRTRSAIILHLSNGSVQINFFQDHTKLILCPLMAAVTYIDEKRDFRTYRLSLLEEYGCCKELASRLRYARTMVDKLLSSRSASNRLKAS

SMILES strings stand for the structures. Several values for one entry are separate records, joined by “and”; a condition that tells them apart may be missing. Identical values can stand only once. Activity calls are given as the source filed them. How the calls were made is not given here.

As usually defined, the IC50 is the midpoint of a concentration-inhibition curve. For `CCOC(=O)c1ccc(NC(=O)c2c(O)[nH]c(=O)[nH]c2=O)cc1`, the half-inhibitory concentration (IC50) was > 50 µM (inactive) and 2.89 µM. The result for `CCOC(=O)c1ccccc1NC(=O)c1c(O)[nH]c(=O)[nH]c1=O` reads > 50 µM (inactive); that for `CCOC(=O)c1ccc(NC(=O)c2c(N)n(Cc3ccccc3)c(=O)[nH]c2=O)cc1`, > 50 µM (inactive); that for `CCOc1ccc(NC(=O)c2c(O)[nH]c(=O)[nH]c2=O)cc1`, > 50 µM (inactive). The result for `COc1ccc(/C=C/C(=O)c2c(O)n(CCC3=CCCCC3)c(=O)[nH]c2=O)cc1` reads > 50 µM (inactive); that for `CCCCOC(=O)c1ccc(NC(=O)c2c(N)n(C)c(=O)[nH]c2=O)cc1`, > 50 µM (inactive); that for `Cc1ccc(NC(=O)c2c[nH]c(=O)[nH]c2=O)cc1`, > 50 µM (inactive). As to `CCOC(=O)c1cccc(NC(=O)c2c(N)n(C)c(=O)[nH]c2=O)c1`, the IC50 was > 50 µM (inactive). The result for `O=C(Nc1ccccc1)c1c(O)[nH]c(=O)[nH]c1=O` reads > 50 µM (inactive).

Regarding `CC(C)c1ccc(NC(=O)COC(=O)c2c[nH]c(=O)[nH]c2=O)cc1`, the IC50 is > 50 µM (inactive). For `CCOC(=O)c1ccc(NC(=O)c2c(N)n(C)c(=O)n(C)c2=O)cc1`, the IC50 was > 50 µM (inactive). As to `CCOC(=O)c1cccc(NC(=O)c2c(NCc3ccccc3)[nH]c(=O)[nH]c2=O)c1`, the IC50 is > 50 µM (inactive). As for `Cc1ccc(N=Cc2c(O)n(-c3ccc(C)cc3)c(=O)[nH]c2=O)cc1`, the figure is > 50 µM (inactive); as for `CCOC(=O)c1ccccc1NC(=O)c1c(N)n(C)c(=O)[nH]c1=O`, > 50 µM (inactive). As for `O=c1[nH]c(NC2CCCCC2)c([N+](=O)[O-])c(=O)[nH]1`, the figure is > 50 µM (inactive); as for `Cn1c2c(c(=O)n(C)c1=O)C(c1ccc(C(F)(F)F)cc1)CC(=O)N2` (stereo not given), > 50 µM (inactive); as for `Cn1cc(C(=O)CNc2ccccc2)c(=O)n(C)c1=O`, > 50 µM (inactive).

`CCOC(=O)CCCCCNC(=O)c1c(N)n(C)c(=O)n(C)c1=O`: the IC50 is > 50 µM (inactive). In the case of `CCOC(=O)c1ccc(NS(=O)(=O)c2c(N)[nH]c(=O)[nH]c2=O)cc1`, the IC50 was > 50 µM (inactive). The result for `CCOC(=O)c1ccc(NC(=O)c2c(N)n(C)c(=O)[nH]c2=O)cc1` reads > 50 µM (inactive); that for `CCCCOC(=O)c1ccc(NC(=O)c2c(O)[nH]c(=O)[nH]c2=O)cc1`, > 50 µM (inactive). The result for `CCCOc1ccc(C(=O)Nc2c[nH]c(=O)[nH]c2=O)cc1` reads > 50 µM (inactive). As for `O=c1[nH]c(=S)[nH]c(O)c1/C=N/Nc1ccccc1`, the figure is > 50 µM (inactive); as for `CCOC(=O)c1ccc(NC(=O)c2c(NCc3ccccc3)[nH]c(=O)[nH]c2=O)cc1`, > 50 µM (inactive); as for `CCOc1ccc(NC(=O)c2c(N)n(C)c(=O)[nH]c2=O)cc1`, > 50 µM (inactive).

For the compound `CC1(C)CC(=O)C(C2(O)C(=O)NC(=O)NC2=O)=C(O)C1`, the IC50 was > 50 µM (inactive). As for `CCOC(=O)c1ccc(NS(=O)(=O)c2c(N)n(C)c(=O)n(C)c2=O)cc1`, the IC50 was > 50 µM (inactive). As for `Cn1c(N)c(S(=O)(=O)Nc2ccccc2)c(=O)n(C)c1=O`, the figure is > 50 µM (inactive); as for `CCOC(=O)c1ccccc1NC(=O)c1c(O)[nH]c(=S)[nH]c1=O`, > 50 µM (inactive). Turning to `Cn1c(N)c(C(=O)Nc2ccccc2)c(=O)[nH]c1=O`, the IC50 is > 50 µM (inactive). The result for `CCC(=O)Oc1ccc(C(=O)Nc2c[nH]c(=O)[nH]c2=O)cc1` reads > 50 µM (inactive); that for `O=C(N/N=C/c1c(O)[nH]c(=O)[nH]c1=O)c1ccncc1`, > 50 µM (inactive).

On to `O=C(Nc1ccccc1)c1c(O)[nH]c(=S)[nH]c1=O`, for which the IC50 was > 50 µM (inactive).

Consider `CCOC(=O)c1cccc(NC(=O)c2c(O)[nH]c(=O)[nH]c2=O)c1`, for which the IC50 was > 50 µM (inactive). As for `COC(=O)c1ccccc1NC(=O)c1c(O)c2c([nH]c1=O)CCCC2`, the figure is > 50 µM (inactive).
